Laboratory results from patent US20250376481A1, “POLYCYCLIC CARBAMOYL PYRIDONE DERIVATIVE, PREPARATION METHOD THEREFOR AND PHARMACEUTICAL COMPOSITION THEREOF” (NANJING AIDEA PHARMACEUTICAL TECHNOLOGY CO., LTD., priority 2021, published 2025).

Assays:
HIV-1 pseudovirus = HIV-1 pseudovirus infection test (antiviral activity, luciferase); type: cell-based; details: Human immunodeficiency virus 1, HEK-293T, 72 h
Procedure: (§1) • Virus: The HIV-1 pseudovirus used in this experiment was a replication deficient virus, which is constructed by WuXi AppTec. • HEK 293T cell line was purchased from ATCC, and Item No. is CRL-11268. Cells were cultured in DMEM medium with 10% fetal bovine serum and 1% double antibody. • Reagents
(§2) On the first day, HEK 293T cells were inoculated into a 96 well test plate at the density of 55000 cells per well and […] per well, and incubated overnight in a 5% CO2 and 37° C. incubator.
(§3) On the second day, the tested compounds (compounds provided in the example of the present invention) and the control compounds were diluted 4-fold with cell culture medium for a total of 8 concentration points, and 50 μL diluted compounds were added to each well, and each well was performed duplicate.
Subsequently, the HIV-1 pseudovirus was diluted to 100 TCID50/50 μL with cell culture medium, and 50 μL diluted virus was added to each well.
(§4) Cell Control (cells, no compound treatment or virus infection) and virus control (cells infected with virus, no compound treatment) were set up. The final initial test concentration of the tested compounds and control compounds was 1000 nM (Table 1), and the amount of virus infection was 100 TCID50 per well. The total volume of cell culture medium was 200 μL per well, and the final concentration of DMSO in the culture medium was 0.5%.
(§5) The cells were cultured in a 5% CO2 and 37° C. incubator for additional 3 days.
On the fifth day, in the antiviral activity test plates, 100 μL cell supernatant was sucked away from each well, 100 μL 2X luciferase reporter gene assay reagent Britellite plus was added in dark. The luciferase activity in each well of the test plates was detected by Envision. The data was used for sample antiviral activity analysis.
(§6) Dose-response curve was drawn through GraphPad Prism software. The calculation equations for antiviral activity (% Inhibition) and cell viability (% cell viability) were as follow:
(§7) The values of EC50 and CC50 were analyzed by GraphPad Prism (version 5) software, and nonlinear fitting analysis was used for inhibitory activity and cell viability of the compounds, and the fitting method was “log (inhibitor) vs. response—Variable slope”.
(§8) 3. The HIV-1 pseudovirus experiment was applied to determinate the in vitro antiviral activity and cytotoxicity of the tested compound on HEK 293T cells, and the experimental results were shown in the table below.

[1] = Cytotoxicity test (cell viability, CellTier Glo); type: cell-based; details: human
Procedure: as §1, §2, §3, §4, §5
On the fifth day, in the cytotoxicity test plates, 100 μL cell supernatant were sucked from each well, 100 μL cell viability assay reagent CellTier Gloin was added in dark. Cell viability in each well was detected by BioTek enzyme-linked immunosorbent assay reader, and the data was used for sample cytotoxicity analysis.
as §6, §7, §8

[2] = Oil-water partition coefficient (n-octanol / pH 7.4 phosphate buffer); type: physicochemical; details: n-octanol / pH 7.4 phosphate buffer, pH 7.4; read-out: Log D (pH 7.4)
Procedure: • a) To a 5 mL glass bottle was added 1 mL n-octanol and 1 mL pH 7.4 phosphate buffer, respectively. • b) The compound was added to a DMSO solution to prepare a compound stock solution with a concentration of 10 mM, and then 20 μL compound stock solution was added to the mixture solution of n-octanol and phosphate buffer. • c) Shaken at room temperature for 1 hour at a rate of 300/minute. • d) Kept for 30 minutes, and after the solution was completely layered, the upper and lower layers of the solution were taken separately to a 96 well deep well plate, and LC-MS/MS was used for detection via injection. • e) The aliquots of 1-octanol and aqueous solution were diluted consecutively with DMSO to obtain the final sample for LC-MS/MS analysis. Three consecutive dilutions were carried on every 1-octanol phase with covering a concentration range of 2500 fold. Every final aqueous phase was diluted consecutively twice with covering a concentration range of 100 fold. The MS peak areas of these solutions were used to generate log (peak area) based on the log (relative concentration) calibration line.
[formula] • Coct=sample concentration in n-octanol • Caq=sample concentration in pH 7.4 phosphate buffer

[3] = PK test of compounds (mouse); type: in vivo, ICR mice
Procedure: The mice were not fed until 5 pm on the day before administration, and fasted overnight with water. The mice in Group IV were administered with 2 mg/kg, while those in Group PO were administered with 10 mg/kg. Feeding was resumed 2 hours after administration. For mice administered by gavage, 20 μL blood was collected from the saphenous vein in calf before administration and 0.25, 0.5, 1, 2, 4, 8, and 24 hours after administration, respectively, and placed in EDTA-K2 anticoagulant blood collection tubes, and then the blood would be placed on ice until centrifuged to obtain plasma samples. The plasma samples were centrifuged at 4° C. (3500 rpm, 10 min), and after separation, the samples were transferred to EP tubes and stored at −80° C. for detection. For mice admistrated by intravenous injection, 20 μL blood was collected from the saphenous vein in calf before administration and 0.0833, 0.25, 0.5, 1, 2, 4, 8 and 24 hours after administration, respectively, and placed in EDTA-K2 anticoagulant blood collection tubes, and then the blood would be placed on ice until centrifuged to obtain a plasma sample. The plasma samples were centrifuged at 4° C. (3500 rpm, 10 min), and after separation, the samples were transferred to EP tubes and stored at −80° C. for detection. The level of tested compounds in blood plasma of mice, who had orally administrated with different concentrations of drugs were determinated: 10 μL mouse blood at each time point after administration was taken, 100 μL methanol containing an internal standard (100 ng/mL) was added, vortex mixed for 1 minute, centrifuged at 4° C. (12000 rmp, 5 minutes), and 1 μL supernatant was taken from the plasma samples for LC-MS/MS analysis.

**Q.** Which EC50 (HIV-1 pseudovirus) does the source give for C[C@H]1N2C(=O)c3c(O)c(=O)c(C(=O)NCc4ccc(F)cc4F)cn3C[C@@H]2OCC12CC2 [Compound 1] here?
**A.** 1.08 nM

**Q.** What about the CC50 at 3 days [1] of the same molecule?
**A.** > 1000 nM

**Q.** And the logD [2]?
**A.** 2.2

**Q.** And the “bioavailability (in words)” value ([3]; PK test in mice)?
**A.** good bioavailability

**Q.** What about the half-life ([3]; male, mouse, plasma, ICR mice, PO 10 mg/kg) of the same molecule?
**A.** 4.37 ± 0.47 h

**Q.** What about the bioavailability ([3]; male, mouse, plasma, ICR mice, PO 10 mg/kg (IV 2 mg/kg)) of the same molecule?
**A.** 57%
